# Measurements as given in patent US7998995B2 (Exelixis Patent Company LLC, priority 2006, dated 2011).
# Tested on: T1, LXR
# T1 construct: fused on or other part: GST fused to the LBD in the FRET assay
# Assay: Measured EC50 or IC50 for LXR (LXRα and/or LXRβ; assay and subtype not given)
# Conditions: IC50 or EC50 class, subtype not specified
# Procedure: Measured EC50 or IC50 for LXR, and FXR for Compounds of the Invention
# LXR and FXR activities for various compounds of the invention are presented in the following table; those compounds with EC50 or IC50 values <10 μM for at least one of LXRα, LXRβ or FXR are considered to be active. In the following Table, IC50 or EC50 data is represented as follows: A<1 μM, B=1-10 μm, and C>10 μM.
row,SMILES,EC50 [nM]
1,"CS(=O)(=O)c1cccc(-c2ccc(NCc3cc(C(F)(F)F)nn3-c3ccccc3Cl)cc2)c1 [Example 928, N-{[1-(2-chlorophenyl)-3-(trifluoromethyl)-1H-pyrazol-5-yl]methyl}-3′-(methylsulfonyl)biphenyl-4-amine]",< 1000
2,"COc1cc(-c2ccc(-c3cccc(S(C)(=O)=O)c3)s2)n(-c2ccccc2Cl)n1 [Example 933, 1-(2-chlorophenyl)-3-(methyloxy)-5-{5-[3-(methylsulfonyl)phenyl]-2-thienyl}-1H-pyrazole]",> 10000
3,"CC1(C)COC(c2cn(-c3ccc(-c4cccc(S(C)(=O)=O)c4)cc3)c(-c3c(Cl)cccc3Cl)n2)=N1 [Example 939, 2-{2-(2,6-dichlorophenyl)-1-[3′-(methylsulfonyl)biphenyl-4-yl]-1H-imidazol-4-yl}-4,4-dimethyl-4,5-dihydro-1,3-oxazole]",< 1000
4,"CC(C)(c1ccccc1Cl)c1nc(C2CCCN2)cn1-c1ccc(-c2cccc(S(C)(=O)=O)c2)cc1 (centres unmarked) [Example 976, 2-[1-(2-Chlorophenyl)-1-methylethyl]-1-[3′-(methylsulfonyl)biphenyl-4-yl]-4-pyrrolidin-2-yl-1H-imidazole]",1000 to 10000
5,"COC(=O)N1CCCC1c1cn(-c2ccc(-c3cccc(S(C)(=O)=O)c3)cc2)c(C(C)(C)c2ccccc2Cl)n1 (centres unmarked) [Example 977, Methyl 2-{2-[1-(2-chlorophenyl)-1-methylethyl]-1-[3′-(methylsulfonyl)biphenyl-4-yl]-1H-imidazol-4-yl}pyrrolidine-1-carboxylate]",< 1000
6,"CC(=O)N1CCCC1c1cn(-c2ccc(-c3cccc(S(C)(=O)=O)c3)cc2)c(C(C)(C)c2ccccc2Cl)n1 (centres unmarked) [Example 978, 4-(1-acetylpyrrolidin-2-yl)-2-[1-(2-chlorophenyl)-1-methylethyl]-1-[3′-(methylsulfonyl)biphenyl-4-yl]-1H-imidazole]",< 1000
7,"CN1CCCC1c1cn(-c2ccc(-c3cccc(S(C)(=O)=O)c3)cc2)c(C(C)(C)c2ccccc2Cl)n1 (centres unmarked) [Example 979, 2-[1-(2-chlorophenyl)-1-methylethyl]-4-(1-methylpyrrolidin-2-yl)-1-[3′-(methylsulfonyl)biphenyl-4-l]-1H-imidazole]",1000 to 10000
8,"CS(=O)(=O)c1cccc(-c2ccc(-n3cc(C4(O)CC4)nc3-c3ccccc3Cl)cc2)c1 [Example 980, 1-(2-(2-chlorophenyl)-1-(3′-(methylsulfonyl)biphenyl-4-yl)-1H-imidazol-4-yl)cyclopropanol]",< 1000
9,"CS(=O)(=O)c1cccc(-c2ccc(-n3cc(C4(O)CCCC4)nc3-c3ccccc3Cl)cc2)c1 [Example 981, 1-(2-(2-chlorophenyl)-1-(3′-(methylsulfonyl)biphenyl-4-yl)-1H-imidazol-4-yl)cyclopentanol]",1000 to 10000
10,"CC1(C)CC(=O)C=C(c2cn(-c3ccc(-c4cccc(S(C)(=O)=O)c4)cc3Cl)c(-c3ccccc3Cl)n2)O1 [Example 982, 6-[1-(3-Chloro-3′-methanesulfonyl-biphenyl-4-yl)-2-(2-chlorophenyl)-1-H-imidazol-4-yl]-2,2-dimethyl-2,3-dihydro-pyran-4-one]",< 1000
11,"CN1CC(c2cn(-c3ccc(-c4cccc(S(C)(=O)=O)c4)cc3Cl)c(-c3ccccc3Cl)n2)CC1=O (centres unmarked) [Example 984, 4-[1-(3-Chloro-3′-methanesulfonyl-biphenyl-4-yl)-2-(2-chlorophenyl)-1-H-imidazol-4-yl]-1-methyl-pyrrolidin-2-one]",< 1000
12,"CS(=O)(=O)c1cccc(-c2ccc(-n3cc(-c4cc(C(F)(F)F)on4)nc3-c3ccccc3Cl)c(Cl)c2)c1 [Example 990, 3-(1-(3-chloro-3′-(methylsulfonyl)biphenyl-4-yl)-2-(2-chlorophenyl)-1H-imidazol-4-yl)-5-(trifluoromethyl)isoxazole]",1000 to 10000
13,"CS(=O)(=O)c1cccc(-c2ccc(-n3cc(C4CC4)nc3-c3ccccc3C(F)(F)F)cc2)c1 [Example 991, 4-cyclopropyl-1-(3′-(methylsulfonyl)biphenyl-4-yl)-2-(2-(trifluoromethyl)phenyl)-1H-imdazole]",< 1000

# Further lines, results first:
row,EC50 [nM],SMILES
1,< 1000,"CC1(C)COC(c2cn(-c3ccc(-c4cccc(S(C)(=O)=O)c4)cc3Cl)c(-c3c(Cl)cccc3Cl)n2)=N1 [Example 934, 2-{1-[3-chloro-3′-(methylsulfonyl)biphenyl-4-yl]-2-(2,6-dichlorophenyl)-1H-imidazol-4-yl}-4,4-dimethyl-4,5-dihydro-1,3-oxazole]"
2,< 1000,"CCS(=O)(=O)c1cccc(-c2ccc(-n3cc(C4=NC(C)(C)CO4)nc3-c3c(Cl)cccc3Cl)c(Cl)c2)c1 [Example 935, 2-{1-[3-chloro-3′-(ethylsulfonyl)biphenyl-4-yl]-2-(2,6-dichlorophenyl)-1H-imidazol-4-yl}-4,4-dimethyl-4,5-dihydro-1,3-oxazole]"
3,< 1000,"CS(=O)(=O)c1cccc(-c2ccc(-n3cc(C4=NCCO4)nc3-c3c(Cl)cccc3Cl)c(Cl)c2)c1 [Example 936, 2-{1-[3-chloro-3′-(methylsulfonyl)biphenyl-4-yl]-2-(2,6-dichlorophenyl)-1H-imidazol-4-yl}-4,5-dihydro-1,3-oxazole]"
4,< 1000,"CC1CN=C(c2cn(-c3ccc(-c4cccc(S(C)(=O)=O)c4)cc3Cl)c(-c3c(Cl)cccc3Cl)n2)O1 (centres unmarked) [Example 937, 2-{1-[3-chloro-3′-(methylsulfonyl)biphenyl-4-yl]-2-(2,6-dichlorophenyl)-1H-imidazol-4-yl}-5-methyl-4,5-dihydro-1,3-oxazole]"
5,< 1000,"CC1COC(c2cn(-c3ccc(-c4cccc(S(C)(=O)=O)c4)cc3Cl)c(-c3c(Cl)cccc3Cl)n2)=N1 (centres unmarked) [Example 938, 2-{1-[3-chloro-3′-(methylsulfonyl)biphenyl-4-yl]-2-(2,6-dichlorophenyl)-1H-imidazol-4-yl}-4-methyl-4,5-dihydro-1,3-oxazole]"
6,< 1000,"CC1(C)CSC(c2cn(-c3ccc(-c4cccc(S(C)(=O)=O)c4)cc3Cl)c(-c3c(Cl)cccc3Cl)n2)=N1 [Example 940, 2-{1-[3-chloro-3′-(methylsulfonyl)biphenyl-4-yl]-2-(2,6-dichlorophenyl)-1H-imidazol-4-yl}-4,4-dimethyl-4,5-dihydro-1,3-thiazole]"
7,1000 to 10000,"CS(=O)(=O)c1cccc(-c2ccc(-n3cc(C4=NCCN4)nc3-c3c(Cl)cccc3Cl)c(Cl)c2)c1 [Example 941, 1′-[3-chloro-3′-(methylsulfonyl)biphenyl-4-yl]-2′-(2,6-dichlorophenyl)-4,5-dihydro-1H,1′H-2,4′-biimidazole]"
8,> 10000,"CC1(C)CN=C(c2cn(-c3ccc(-c4cccc(S(C)(=O)=O)c4)cc3Cl)c(-c3c(Cl)cccc3Cl)n2)N1 [Example 942, 1′-[3-chloro-3′-(methylsulfonyl)biphenyl-4-yl]-2′-(2,6-dichlorophenyl)-5,5-dimethyl-4,5-dihydro-1H,1′H-2,4′-biimidazole]"
9,> 10000,"CC1(C)CN=C(c2cn(-c3ccc(-c4cccc(S(C)(=O)=O)c4)cc3)c(-c3c(Cl)cccc3Cl)n2)N1 [Example 943, 2′-(2,6-dichlorophenyl)-5,5-dimethyl-1′-[3′-(methysulfonyl)biphenyl-4-yl]-4,5-dihydro-1H,1′H-2,4′-biimidazole]"
10,< 1000,"Cc1noc(-c2cn(-c3ccc(-c4cccc(S(C)(=O)=O)c4)cc3Cl)c(-c3c(Cl)cccc3Cl)n2)n1 [Example 944, 5-{1-[3-chloro-3′-(methylsulfonyl)biphenyl-4-yl]-2-(2,6-dichlorophenyl)-1H-imidazol-4-yl}-3-methyl-1,2,4-oxadiazole]"
